Measured values as given in patent US10669283B2, “Compound and pharmacologically acceptable salt thereof” (MEIJI SEIKA PHARMA CO., LTD., priority 2016, dated 2020).
Like-named read-outs stand apart in the source and are kept apart here.

System: PDE4
Test: PDE4 inhibition, scintillation proximity assay (SPA);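 as to PDE4 Inhibitory Activity (concentration for the inhibition rate of 50%): A below 100 nM B 100 to below 1000 nM C 1000 nM or more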
Format: biochemical
Procedure, shortened: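 Scintillation proximity read-out: [2,8-3H]-cAMP hydrolysis by PDE4 ran 120 min at room temperature in Tris-HCl pH 7.4 buffer with 8.3 mM MgCl2, 1.7 mM EGTA and 3 mg/mL BSA. Bead-bound product (YSi-SPA with ZnSO4, 15 min) counted; blank lacks enzyme, control has DMSO only.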

[1] = scintillation proximity assay (SPA), evaluated as classes A, B, C, read-out: PDE4 Inhibitory Activity (concentration for the inhibition rate of 50%)
[2] = scintillation proximity assay, class symbols, read-out: PDE4 Inhibitory Activity

SMILES | IC50 [1] [nM] | IC50 [2] [nM]
N#CCOc1cc(-c2nccs2)c2oc(N3CC4CCC(C3)N4)nc2c1 [Example 73, 2-((2-(3,8-Diazabicyclo[3.2.1]octan-3-yl)-7-(thiazol-2-yl)benzo[d]oxazol-5-yl)oxy)acetonitrile] | < 100 | –
N#CC1CC(Oc2ccc(-c3nccs3)c3oc(N4CC5CC(C4)N5)nc23)C1 (stereo not drawn) [Example 266, 3-((2-(3,6-Diazabicyclo[3.1.1]heptan-3-yl)-7-(thiazol-2-yl)benzo[d]oxazol-4-yl)oxy)cyclobutane-1-carbonitrile] | < 100 | –
CC(O)c1cc(-c2nccs2)c2oc(N3CC4CCC(C3)N4O)nc2c1C(F)(F)F (stereo not drawn) [Example 384, 3-(5-(1-hydroxy-ethyl)-7-(thiazol-2-yl)-4-(trifluoro-methyl)benzo[d]oxazol-2-yl)-3,8-diazabicyclo[3.2.1] octan-8-ol] | – | > 1000
COC(C)(C)c1cc(-c2nccs2)c2oc(N3CC4CC(C3)N4)nc2c1OC(F)(F)F [Example 199, 2-(3,6-Diazabicyclo[3.1.1]heptan-3-yl)-5-(2-methoxypropan-2-yl)-7-(thiazol-2-yl)-4-(trifluoromethoxy)benzo[d]oxazole] | < 100 | –
OCCOC(c1ccc(-c2nccs2)c2oc(N3CC4CC(C3)N4)nc12)C(F)(F)F (stereo not drawn) [Example 227, 2-(1-(2-(3,6-Diazabicyclo[3.1.1]heptan-3-yl)-7-(thiazol-2-yl)benzo[d]oxazol-4-yl)-2,2,2-trifluoroethoxy)ethan-1-ol] | < 100 | –
COCCOC(c1ccc(-c2nccs2)c2oc(N3CC4CC(C3)N4)nc12)C(F)(F)F (stereo not drawn) [Example 229, 2-(3,6-Diazabicyclo[3.1.1]heptan-3-yl)-7-(thiazol-2-yl)-4-(2,2,2-trifluoro-1-(2-methoxyethoxy)ethyl)benzo[d]oxazole] | < 100 | –
CC(C)(O)c1cc(-c2nccs2)c2oc(N3CC4CCC(C3)N4O)nc2c1C(F)(F)F [Example 381, 3-(5-(2-hydroxy-propan-2-yl)-7-(thiazol-2-yl)-4-(trifluoromethyl)benzo[d]oxazol-2-yl)-3,8-diaza-bicyclo[3.2.1] octan-8-ol] | – | > 1000
O=C(c1cc(-c2nccs2)c2oc(N3CC4CCC(C3)N4)nc2c1)N1CCOCC1 [Example 95, (2-(3,8-Diazabicyclo[3.2.1]octan-3-yl)-7-(thiazol-2-yl)benzo[d]oxazol-5-yl)(morpholino)methanone] | < 100 | –
OC(c1cc(-n2cccn2)c2oc(N3CC4CCC(C3)N4)nc2c1)C(F)(F)F (stereo not drawn) [Example 140, 1-(2-(3,8-Diazabicyclo[3.2.1]octan-3-yl)-7-(1H-pyrazol-1-yl)benzo[d]oxazol-5-yl)-2,2,2-trifluoroethan-1-ol] | < 100 | –
Oc1cc(-c2nccs2)c2oc(N3CC4CC(C3)N4)nc2c1 [Example 64, 2-(3,6-Diazabicyclo[3.1.1]heptan-3-yl)-7-(thiazol-2-yl)benzo[d]oxazol-5-ol] | < 100 | –
NC(=O)c1cc(-c2nccs2)c2oc(N3CC4CCC(C3)N4)nc2c1 [Example 99, 2-(3,8-Diazabicyclo[3.2.1]octan-3-yl)-7-(thiazol-2-yl) benzo[d]oxazole-5-carboxamide] | < 100 | –
CC(C)(O)c1cc(-c2nccs2)c2oc(N3CC4CC(C3)N4)nc2c1 [Example 173, 2-(2-(3,6-Diazabicyclo[3.1.1]heptan-3-yl)-7-(thiazol-2-yl)benzo[d]oxazol-5-yl)propan-2-ol] | < 100 | –
CC(C)(O)C(Oc1ccc(-c2nccs2)c2oc(N3CC4CC(C3)N4)nc12)C(F)(F)F (stereo not drawn) [Example 313, 3-((2-(3,6-Diazabicyclo[3.1.1]heptan-3-yl)-7-(thiazol-2-yl)benzo[d]oxazol-4-yl)oxy)-4,4,4-trifluoro-2-methylbutan-2-ol] | < 100 | –
OC(c1cc(-c2cscn2)c2oc(N3CC4CCC(C3)N4)nc2c1OC(F)(F)F)C(F)F (stereo not drawn) [Example 303, 1-(2-(3,8-Diazabicyclo[3.2.1]octan-3-yl)-7-(thiazol-4-yl)-4-(trifluoromethoxy)benzo[d]oxazol-5-yl)-2,2-difluoroethan-1-ol] | < 100 | –
COC(C)(C)COC(c1ccc(-c2nccs2)c2oc(N3CC4CC(C3)N4)nc12)C(F)(F)F (stereo not drawn) [Example 281, 2-(3,6-Diazabicyclo[3.1.1]heptan-3-yl)-7-(thiazol-2-yl)-4-(2,2,2-trifluoro-1-(2-methoxy-2-methylpropoxy)ethyl)benzo[d]oxazole] | < 100 | –
COC(C)(c1cc(-c2nccs2)c2oc(N3CC4CCC(C3)N4)nc2c1)C(F)(F)F (stereo not drawn) [Example 102, 2-(3,8-Diazabicyclo[3.2.1]octan-3-yl)-7-(thiazol-2-yl)-5-(1,1,1-trifluoro-2-methoxypropan-2-yl)benzo[d]oxazole] | < 100 | –
CC(=O)c1ccc(-c2nccs2)c2oc(N3CC4CCC(C3)N4)nc12 [Example 245, 1-(2-(3,8-Diazabicyclo[3.2.1]octan-3-yl)-7-(thiazol-2-yl)benzo[d]oxazol-4-yl)ethan-1-one] | < 100 | –
COC(c1ccc(-c2nccs2)c2oc(N3CC4CCC(C3)N4)nc12)C(F)(F)F (stereo not drawn) [Example 222, 2-(3,8-Diazabicyclo[3.2.1]octan-3-yl)-7-(thiazol-2-yl)-4-(2,2,2-trifluoro-1-methoxyethyl)benzo[d]oxazole] | < 100 | –

SMILES | IC50 [1] [nM] | IC50 [2] [nM]
CN(C)C(=O)c1ccc(-c2nccs2)c2oc(N3CC4CCC(C3)N4)nc12 [Example 115, 2-(3,8-Diazabicyclo[3.2.1]octan-3-yl)-N,N-dimethyl-7-(thiazol-2-yl)benzo[d]oxazole-4-carboxamide] | < 100 | –
O=C(O)c1ccc(-c2nccs2)c2oc(N3CC4CCC(C3)N4)nc12 [Example 238, 2-(3,8-Diazabicyclo[3.2.1]octan-3-yl)-7-(thiazol-2-yl) benzo[d]oxazole-4-carboxylic acid] | < 100 | –
CC(O)(O)C(F)(F)Oc1ccc(-c2nccs2)c2oc(N3CC4CC(C3)N4)nc12 [Example 377, 1-((2-(3,6-diazabicyclo[3.1.1]heptan-3-yl)-7-(thiazol-2-yl)benzo[d]oxazol-4-yl)oxy)-1,1-difluoropropane-2,2-diol] | – | < 100
CC(C)c1cc(-c2nccs2)c2oc(N3CC4CCC(C3)N4)nc2c1 [Example 21, 2-(3,8-Diazabicyclo[3.2.1]octan-3-yl)-5-isopropyl-7-(thiazol-2-yl)benzo[d]oxazole] | < 100 | –
CC(=O)Nc1cc(-c2nccs2)c2oc(N3CC4CCCC(C3)N4)nc2c1 [Example 48, N-(2-(3,9-diazabicyclo[3.3.1]nonan-3-yl)-7-(thiazol-2-yl)benzo[d]oxazol-5-yl)acetamide] | < 100 | –
CCC(F)(F)Oc1ccc(-c2nccs2)c2oc(N3CC4CC(C3)N4)nc12 [Example 402, 2-(3,6-diazabicyclo [3.1.1]heptan-3-yl)-4-(1,1-difluoro-propoxy)-7-(thiazol-2-yl) benzo[d] oxazole] | – | < 100
CC(O)(c1cc(-c2nccs2)c2oc(N3CC4CCC(C3)N4)nc2c1)C(F)(F)F (stereo not drawn) [Example 159, 2-(2-(3,8-Diazabicyclo[3.2.1]octan-3-yl)-7-(thiazol-2-yl)benzo[d]oxazol-5-yl)-1,1,1-trifluoropropan-2-ol] | < 100 | –
CC(C)(O)COc1ccc(-c2nccs2)c2oc(N3CC4CC(C3)N4)nc12 [Example 279, 1-((2-(3,6-Diazabicyclo[3.1.1]heptan-3-yl)-7-(thiazol-2-yl)benzo[d]oxazol-4-yl)oxy)-2-methylpropan-2-ol] | < 100 | –
CNS(=O)(=O)c1ccc(-c2nccs2)c2oc(N3CC4CC(C3)N4)nc12 [Example 386, 2-(3,6-diazabicyclo[3.1.1]heptan-3-yl)-N-methyl-7-(thiazol-2-yl)benzo[d] oxazole-4-sulfonamide] | – | < 100
CSc1cc(-c2nccs2)c2oc(N3CC4CCCC(C3)N4)nc2c1 [Example 41, 2-(3,9-Diazabicyclo[3.3.1]nonan-3-yl)-5-(methylthio)-7-(thiazol-2-yl)benzo[d]oxazole] | < 100 | –
FC(F)(F)c1c(Cl)cc(-c2ccccn2)c2oc(N3CC4CC(C3)N4)nc12 [Example 13, 2-(3,6-Diazabicyclo[3.1.1]heptan-3-yl)-5-chloro-7-(pyridin-2-yl)-4-(trifluoromethyl)benzo[d]oxazole] | < 100 | –
COc1ccc(-c2nccs2)c2oc(N3CC4CCC(C3)N4)nc12 [Example 75, 2-(3,8-Diazabicyclo[3.2.1]octan-3-yl)-4-methoxy-7-(thiazol-2-yl)benzo[d]oxazole] | < 100 | –
CSc1cc(-c2nccs2)c2oc(N3CC4CCC(C3)N4)nc2c1 [Example 39, 2-(3,8-Diazabicyclo[3.2.1]octan-3-yl)-5-(methylthio)-7-(thiazol-2-yl)benzo[d]oxazole] | < 100 | –
OC(c1ccc(-c2nccs2)c2oc(N3CC4CC(C3)N4)nc12)C(F)(F)F (stereo not drawn) [Example 121, 1-(2-(3,6-Diazabicyclo[3.1.1]heptan-3-yl)-7-(thiazol-2-yl)benzo[d]oxazol-4-yl)-2,2,2-trifluoroethan-1-ol] | < 100 | –
FC(F)(F)c1c(Cl)cc(-n2cccn2)c2oc(N3CC4CCCC(C3)N4)nc12 [Example 16, 2-(3,9-Diazabicyclo[3.3.1]nonan-3-yl)-5-chloro-7-(1H-pyrazol-1-yl)-4-(trifluoromethyl)benzo[d]oxazole] | < 100 | –
FC(F)Oc1ccc(-c2nccs2)c2oc(N3CC4CC(C3)N4)nc12 [Example 278, 2-(3,6-Diazabicyclo[3.1.1]heptan-3-yl)-4-(difluoromethoxy)-7-(thiazol-2-yl)benzo[d]oxazole] | < 100 | –
O=C(O)c1cc(-c2nccs2)c2oc(N3CC4CCCC(C3)N4)nc2c1OC(F)(F)F [Example 191, 2-(3,9-Diazabicyclo[3.3.1]nonan-3-yl)-7-(thiazol-2-yl)-4-(trifluoromethoxy)benzo[d]oxazole-5-carboxylic acid] | 100 to 1000 | –
FC(F)(F)c1c(Cl)cc(-c2nccs2)c2oc(N3CC4CCC(C3)N4)nc12 [Example 20, 2-(3,8-Diazabicyclo[3.2.1]octan-3-yl)-5-chloro-7-(thiazol-2-yl)-4-(trifluoromethyl)benzo[d]oxazole] | < 100 | –
